This note sets out measurements from patent US20150210796A1, “Novel Compound, Novel Polymer, Colorant Including the Same, Positive Photosensitive Resin Composition Including the Same, and Color Filter” (Samsung SDI Co., Ltd., priority 2014, published 2015).

This series is described as follows: Solubility: dissolution state of compound in dilution solvent. The class given is physicochemical. The note with it: agitated at 25° C. and 100 rpm for 1 hour; for Amount of dissolved compound, diluted solvent (Anone): 0.5 g compound added to Anone (cyclohexanone); for Amount of dissolved compound, diluted solvent (PGMEA): 0.5 g compound added to PGMEA. How it is done: 0.5 g of each compound represented by Chemical Formulae 3-1 and 7-1 is respectively added to a dilution solvent (PGMEA, Anone, MeOH) to prepare each solution, the solution is agitated at 25° C. and 100 rpm for 1 hour with a mix rotor (MIXROTAR VMR-5, Luchi Deiseido Co., Ltd.) to examine dissolution state of the compound (the content of the dissolved compound), and the results are provided in the following Table 1. (Anone indicates cyclohexanone)

On to `C=C(C)C(=O)OCCNS(=O)(=O)c1ccc(-c2c3ccc(=[N+](CC)CC)cc-3oc3cc(N(CC)CC)ccc23)c(S(=O)(=O)[O-])c1` [Chemical Formula 3-1], for which the “Amount of dissolved compound, diluted solvent (Anone)” value was “equal to 0.1 wt %” and the “Amount of dissolved compound, diluted solvent (PGMEA)” value is reported as “to 0.1 wt %”.
`C=C(C)C(=O)OCCN(CCCCCCCCCCCCCCCC)S(=O)(=O)c1ccc(-c2c3ccc(=[N+](CC)CC)cc-3oc3cc(N(CC)CC)ccc23)c(S(=O)(=O)[O-])c1` [Chemical Formula 7-1]: the “Amount of dissolved compound, diluted solvent (Anone)” value is 3.0 wt % and the “Amount of dissolved compound, diluted solvent (PGMEA)” value is listed as 0.1 wt %. Further, the “Amount of dissolved compound, diluted solvent (MeOH)” value (0.5 g compound added to MeOH) is reported as “equal to 10.0 wt %”.
